For series [1] the following is noted: Xenograft mice, 20 mg/kg intravenous, within 30 minutes; cited from earlier work.
The subject of series [2] is Caspase 3/7 activity in lymphoma cells. The series can be described thus: EnzChek Caspase 3 assay. It is filed as cell-based. The following applies: 24 hours. As to the method:
An EnzChek caspase 3 assay (Thermo Fisher Scientific) was performed in accordance with the manufacturer's instructions. 100,000 cells were plated in a 12-well plate and treated with varying concentrations of 9-ING-41 for 24 hours in duplicate. At the end of treatment, cells were centrifuged at 200 rcf for 5 minutes and washed once with 1× PBS and lysed in 50 μL of 1× lysis buffer provided by the kit. For efficient lysis, cells were subjected to a single freeze-thaw cycle. The lysed cells were centrifuged again to remove cell debris, and the supernatant was used in the assay. 50 μL of 2× substrate working solution containing Z-DEVD-R110 substrate was added to the cell lysate, with a subsequent incubation at room temperature for 45 minutes. […] Both of these products were then measured using a Biotek synergy 2 fluorescent plate reader at corresponding wavelengths (excitation 496 nm/emission 520 nm). The fluorescent reading was normalized to the amount of protein in the cell lysate as determined via standard BCA assay (Pierce Thermo Fisher Scientific). Relative fluorescence was calculated after setting the no-treatment control to 1. […]

The subject of a further series is MyLa. The series can be described thus: Proliferation assay (thymidine uptake). It is filed as cell-based. The following applies: Homo sapiens; MyLa (TCL), 48 hours then thymidine pulse; read-out: IC50 (μM) on Cell proliferation. As to the method: (§1) Cells were seeded at 1×10^4 cells/well in 96 well plates, and incubated with 9-ING-41 at indicated concentrations for 48 hours followed by pulsing with tritium labeled thymidine for overnight before being analyzed for thymidine uptake.
(§2) The IC50S of 9-ING-41 on cell survival and proliferation was calculated using an on-line IC50 calculation tool (https://www.aatbio.com/tools/ic50-calculator/).
(§3) 9-ING-41 can specifically induce lymphoma cell apoptosis without affecting normal lymphocytes. The thymidine incorporation assay in the presence or absence of 9-ING-41 was performed to test the role of GSK3 in lymphoma cell proliferation. […] The DLBCL lines required slightly higher concentrations. The IC50 of 9-ING-41 on cell proliferation for various lymphoma cell lines was calculated (Table 1).

The test system of another series is OCI-LY1. The series can be described thus: Proliferation assay (thymidine uptake). The format is cell-based. To be noted: Homo sapiens; OCI-LY1 (DLBCL), 48 hours then thymidine pulse; read-out: IC50 (μM) on Cell proliferation. Here is the method:
as §1, §2, §3

The test system of another series is Granta-519. The series can be described thus: Proliferation assay (thymidine uptake). The following applies: Homo sapiens; Granta-519 (MCL), 48 hours then thymidine pulse; read-out: IC50 (μM) on Cell proliferation. The format is cell-based. As to the method: as §1, §2, §3
The next series relates to OCI-LY19. Description: Proliferation assay (thymidine uptake). It is filed as cell-based. The following applies: Homo sapiens; OCI-LY19 (DLBCL), 48 hours then thymidine pulse; read-out: IC50 (μM) on Cell proliferation. Here is the method:
as §1, §2, §3

A further series has as its system Mino. The series can be described thus: Proliferation assay (thymidine uptake). It is filed as cell-based. The following applies: Homo sapiens; Mino (MCL), 48 hours then thymidine pulse; read-out: IC50 (μM) on Cell proliferation. As to the method:
as §1, §2, §3

The test system of series [3] is Karpas-299. Description: Proliferation assay (thymidine uptake). The format is cell-based. To be noted: Homo sapiens; Karpas-299 (TCL), 48 hours then thymidine pulse; read-out: IC50 (μM) on Cell proliferation. As to the method:
as §1, §2, §3

Another series concerns OCI-Ly3. The series can be described thus: Proliferation assay (thymidine uptake). It is filed as cell-based. The following applies: Homo sapiens; OCI-Ly3 (DLBCL), 48 hours then thymidine pulse; read-out: IC50 (μM) on Cell proliferation. Here is the method:
as §1, §2, §3

In series [4] the test system is SU-DHL6. Description: Proliferation assay (thymidine uptake). The format is cell-based. The following applies: Homo sapiens, SU-DHL-6; SU-DHL6 (DLBCL), 48 hours then thymidine pulse; read-out: IC50 (μM) on Cell proliferation. As to the method: as §1, §2, §3
The subject of the next series is Jeko. The series can be described thus: Proliferation assay (thymidine uptake). The format is cell-based. The following applies: Homo sapiens; Jeko (MCL), 48 hours then thymidine pulse; read-out: IC50 (μM) on Cell proliferation. As to the method:
as §1, §2, §3

The subject of the next series is SeAx. Description: Proliferation assay (thymidine uptake). It is filed as cell-based. To be noted: Homo sapiens; SeAx (TCL), 48 hours then thymidine pulse; read-out: IC50 (μM) on Cell proliferation. Here is the method:
as §1, §2, §3

Series [5] deals with Karpas-299. Description: Apoptosis assay (Annexin V/PI), cell survival. It is filed as cell-based. The following applies: Homo sapiens; Karpas-299 (TCL), 48 hours. Here is the method: (§4) Cells were seeded at 5×10^5 cells/well in 24 well plates, and incubated with 9-ING-41 at indicated concentrations for 48 hours. The cells were then stained with FITC conjugated Annexin V (Life Technologies) and Propidium Iodide followed by analysis on a BD FACS Calibur flow cytometer.
as §2
(§5) Given that both GSK3α and GSK3β are overexpressed in lymphoma cells, and that both enzymes are implicated in multiple signaling pathways critical for cell functions, whether GSK3α and GSK3β are functionally supporting the survival and proliferation of lymphoma cells was examined. […] The inhibitory concentrations of 9-ING-41 at half of the maximal effect (IC50) on cell survival of various lymphoma cell lines was calculated (Table 1).

The test system of series [6] is SU-DHL6. Description: Apoptosis assay (Annexin V/PI), cell survival. It is filed as cell-based. To be noted: Homo sapiens, SU-DHL-6; SU-DHL6 (DLBCL), 48 hours. As to the method: as §4, §2, §5
Series [7] has as its system Diffuse large B-cell lymphoma. Description: Treatment of Diffuse Large B-cell Lymphoma in a human. The format is in vivo. The following applies: 1 mg/kg per day, six 21 day cycles. Here is the method:
A human suffering from Diffuse large B-cell lymphoma is administered 1 mg/kg per day of 9-ING-41 for six 21 day cycles. After treatment, the human's DLBCL is in remission.

For another series, the system named is Jeko derived xenograft. The series can be described thus: Jeko derived MCL xenograft mouse model. The format is in vivo. To be noted: NSG mice, 40 mg/kg every other day IP, day 17.
In another series the test system is TCL and MCL lines. Description: Thymidine incorporation assay in TCL and MCL lines. It is filed as cell-based, human. The following applies: 9-ING-41 concentrations as low as 1.0 μM. Here is the method:
Unstimulated peripheral blood B- and T-lymphocytes isolated from a healthy donor were used as normal control. Pro-apoptotic effect of the GSK3 inhibitor 9-ING-41 in various MCL and TCL lines (A) and DLBCL lines (B). (C) Cell proliferation profile of various lymphoma cell lines upon treatment with 9-ING-41. Results (A-C) are from 3 independent experiments.
as §1, §3
(Uptake of a labelled nucleoside into DNA is a usual measure of proliferation.)

Excerpt for Jeko derived xenograft: The images shown were collected at the end of the experiment (day 17). […] An MCL xenograft mouse model was established by subcutaneously injecting NGS mice with Jeko cells expressing the firefly luciferase reporter gene Fluc. NSG (NOD.Cg-PrkdcscidIl2rgtm1Wjl/SzJ) mice used in these experiments were purchased from the Jackson Laboratory (Bar Harbor, Maine). Eight to ten mice of same sex at 8 weeks of age were subcutaneously injected with 5×10^6 Fluc expressing Jeko cells in the right flanks. Tumor engraftment was verified by imaging 4 days after Jeko cell inoculation. […] Tumor volumes were measured by an IVIS Imager (Xenogen, Alameda, CA) 20 minutes after IP injection of 200 ul of 15 mg/ml D-leuciferin (GoldBio, St. Louis, MO) and anesthetized with 2.5% isoflurane. All imaging variables were kept consistent for comparativeness. The experiment terminated when the largest tumor met the size limit of the IACUC protocol.

Turning to `Cn1cc(C2=C(c3coc4ccc(F)cc34)C(=O)NC2=O)c2cc3c(cc21)OCO3` [9-ING-41, 3-(5-Fluorobenzofuran-3-yl)-4-(5-methyl-5H-[1,3]dioxolo[4,5-f]indol-7-yl)pyrrole-2,5-dione], the “9-ING-41 concentration in plasma” value in series [1] is on record as “around 8 μM”. The “9-ING-41 concentration in the brain” value in series [1] is listed as “around 40 μM”. Moreover, the “Concentration giving an increase in Caspase 3/7 activity” value in series [2] is not below 0.5 µM. Further, the IC50 came out at 0.19 µM in the series with MyLa; 0.69 µM with OCI-LY1; 0.38 µM in the series on Granta-519; 1.96 µM in the series on OCI-LY19; 0.72 µM with Mino; 0.26 µM in the series with Karpas-299 [3]. In addition, the IC50 in the series with OCI-Ly3 turned out to be 1.03 µM; in the series with SU-DHL6 [4] it was 0.84 µM; in the series with Jeko, 0.94 µM; in the series on SeAx, 0.38 µM; in the series with Karpas-299 [5] it was 3.34 µM; in the series with SU-DHL6 [6], 1.58 µM. Besides, in [7], the Outcome after treatment result was “in remission”. The “Tumor size and luciferase activity versus control” value in the series with Jeko derived xenograft is listed as “smaller tumors with much lower luciferase activity”. Further, the “Proliferation rate of all TCL and MCL lines” value in the series with TCL and MCL lines was “profoundly inhibited”.

The values are drawn from patent publication US11980607B2, “Methods of treating malignant lymphoproliferative disorders” (Actuate Therapeutics Inc., priority 2018, dated 2024).
